Experimental data as given in ChEMBL document CHEMBL5620354, “Development of isoselenazolium chlorides as selective pyruvate kinase isoform M2 inhibitors” (Eur J Med Chem, 2023).
pIC50: −log10 of the molar value.

Columns and labels:
4T1 = test: Cytotoxicity against mouse 4T1 cells assessed as inhibition of cell growth incubated for 48 hrs by MTT assay; assay type: functional, cell-based; details: 4T1, 48 h
Pyruvate kinase PKM [1] = target: T1, Pyruvate kinase PKM (Homo sapiens, UniProt P14618); test: Inhibition of N-terminal his8-tagged PKM2 (unknown origin) in presence of FBP by Michaelis-menten analysis
Target sequence in this assay (P14618 whole entry): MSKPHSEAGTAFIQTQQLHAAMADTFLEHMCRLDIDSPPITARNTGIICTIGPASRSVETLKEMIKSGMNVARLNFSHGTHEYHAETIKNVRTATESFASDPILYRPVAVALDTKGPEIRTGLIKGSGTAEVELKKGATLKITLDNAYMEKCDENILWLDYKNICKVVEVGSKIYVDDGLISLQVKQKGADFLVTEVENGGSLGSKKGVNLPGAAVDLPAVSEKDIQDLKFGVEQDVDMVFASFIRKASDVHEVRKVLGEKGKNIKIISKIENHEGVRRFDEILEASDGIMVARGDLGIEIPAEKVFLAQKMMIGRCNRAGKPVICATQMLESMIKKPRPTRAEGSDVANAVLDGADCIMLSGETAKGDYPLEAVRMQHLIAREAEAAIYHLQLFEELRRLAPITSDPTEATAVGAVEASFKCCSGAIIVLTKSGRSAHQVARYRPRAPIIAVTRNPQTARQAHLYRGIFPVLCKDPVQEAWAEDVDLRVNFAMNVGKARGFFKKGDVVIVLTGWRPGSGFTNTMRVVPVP

MDA-MB-231 = test: Cytotoxicity against human MDA-MB-231 cells assessed as inhibition of cell growth incubated for 48 hrs by MTT assay; assay type: functional, cell-based; details: MDA-MB-231, 48 h
Jurkat = test: Cytotoxicity against human Jurkat cells assessed as inhibition of cell growth incubated for 48 hrs by MTT assay; assay type: functional, cell-based
Pyruvate kinase PKM [2] = target: T1, Pyruvate kinase PKM; test: Inhibition of N-terminal his8-tagged PKM2 (unknown origin)
Target sequence in this assay (P14618 whole entry): as above

MCF7 = test: cells; details: Homo sapiens, MCF7, 48 h
Description: Cytotoxicity against human MCF7 cells assessed as inhibition of cell growth incubated for 48 hrs by MTT assay

HCC1937 = test: Cytotoxicity against human HCC1937 cells assessed as inhibition of cell growth incubated for 48 hrs by MTT assay; assay type: functional, cell-based; details: HCC1937, 48 h
[3] = Cytotoxicity against rat H9c2 cells assessed as inhibition of cell growth incubated for 48 hrs by MTT assay; assay type: toxicity, cell-based
A549 = test: cells; details: Homo sapiens, A549, 48 h
Description: Cytotoxicity against human A549 cells assessed as inhibition of cell growth incubated for 48 hrs by MTT assay

Oryctolagus cuniculus = organism: Oryctolagus cuniculus; test: Inhibition of rabbit LDH at 1 uM relative to control
[4] = target: Pyruvate kinase PKLR (Homo sapiens) (UniProt P30613); test: Inhibition of PKR (unknown origin) at 1 uM relative to control
Pyruvate kinase PKM [5] = target: T1, Pyruvate kinase PKM; test: Inhibition of PKM1 (unknown origin); set-up: concentration or dose not given beside the values; details: concentration not given here
Target sequence in this assay (P14618 2-531 limits assumed): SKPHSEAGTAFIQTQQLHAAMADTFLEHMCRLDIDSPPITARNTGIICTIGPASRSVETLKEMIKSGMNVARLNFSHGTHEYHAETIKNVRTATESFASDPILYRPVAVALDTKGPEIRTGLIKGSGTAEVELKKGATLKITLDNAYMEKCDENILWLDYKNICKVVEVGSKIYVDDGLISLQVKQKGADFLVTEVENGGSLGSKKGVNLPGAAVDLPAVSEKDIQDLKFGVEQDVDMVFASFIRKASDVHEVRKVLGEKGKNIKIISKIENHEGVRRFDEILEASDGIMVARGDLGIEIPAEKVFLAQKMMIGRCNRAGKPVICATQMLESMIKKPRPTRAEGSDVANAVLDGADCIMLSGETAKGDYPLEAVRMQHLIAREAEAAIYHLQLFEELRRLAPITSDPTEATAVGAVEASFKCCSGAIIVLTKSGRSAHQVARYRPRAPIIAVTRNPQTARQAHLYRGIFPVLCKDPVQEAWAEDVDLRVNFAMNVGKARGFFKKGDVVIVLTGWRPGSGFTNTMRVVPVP

Pyruvate kinase PKM [6] = target: T1, Pyruvate kinase PKM; test: Binding affinity to PKM2 (unknown origin) assessed as protein destabilization by differential scanning fluorimetry; details: dose 2.5-10 µM
Target sequence in this assay (P14618 2-531 limits assumed): as above

Pyruvate kinase PKM [7] = target: T1, Pyruvate kinase PKM; test: Inhibition of PKM2 (unknown origin) assessed as increase in tetramer ratio by analytical size-exclusion chromatography; details: dose 5.0 µM
Target sequence in this assay (P14618 2-531 limits assumed): as above

Pyruvate kinase PKM [8] = target: T1, Pyruvate kinase PKM; test: Inhibition of PKM2 (unknown origin) assessed as decrease in dimer population at 5 uM in presence of FBP by analytical size-exclusion chromatography relative to control
Target sequence in this assay (P14618 2-531 limits assumed): as above

Pyruvate kinase PKM [9] = target: T1, Pyruvate kinase PKM; test: Inhibition of PKM2 (unknown origin) assessed as decrease in dimer population at 5 uM by analytical size-exclusion chromatography relative to control
Target sequence in this assay (P14618 2-531 limits assumed): as above

Pyruvate kinase PKM [10] = target: T1, Pyruvate kinase PKM; test: Inhibition of PKM2 (unknown origin) assessed as decrease in dimer population by analytical size-exclusion chromatography; details: dose 5.0 µM
Target sequence in this assay (P14618 2-531 limits assumed): as above

Pyruvate kinase PKM [11] = target: T1, Pyruvate kinase PKM; test: Inhibition of PKM2 (unknown origin) assessed as decrease in monomer population at 5 uM by analytical size-exclusion chromatography relative to control

Pyruvate kinase PKLR (Homo sapiens), sequence (P30613 whole entry, looked up): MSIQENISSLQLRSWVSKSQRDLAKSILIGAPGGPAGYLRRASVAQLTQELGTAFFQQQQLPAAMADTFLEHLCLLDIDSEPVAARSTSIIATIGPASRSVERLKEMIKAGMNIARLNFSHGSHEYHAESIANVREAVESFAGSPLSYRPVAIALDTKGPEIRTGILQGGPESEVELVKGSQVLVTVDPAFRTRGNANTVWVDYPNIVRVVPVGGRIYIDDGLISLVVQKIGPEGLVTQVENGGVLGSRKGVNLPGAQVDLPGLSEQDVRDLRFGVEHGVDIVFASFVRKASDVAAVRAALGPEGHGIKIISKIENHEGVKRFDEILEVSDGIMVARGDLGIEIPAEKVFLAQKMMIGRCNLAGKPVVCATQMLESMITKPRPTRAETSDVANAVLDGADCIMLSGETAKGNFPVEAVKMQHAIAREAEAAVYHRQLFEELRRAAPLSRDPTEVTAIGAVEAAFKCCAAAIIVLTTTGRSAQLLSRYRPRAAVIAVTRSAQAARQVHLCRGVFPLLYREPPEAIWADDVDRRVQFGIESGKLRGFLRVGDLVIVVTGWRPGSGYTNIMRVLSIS

Structure (SMILES)	pIC50 (4T1; read-out: IC50)	pIC50 (Pyruvate kinase PKM [1])	pIC50 (MDA-MB-231)	pIC50 (Jurkat)	pIC50 (Pyruvate kinase PKM [2])	pIC50 (MCF7)	pIC50 (HCC1937)	IC50 at 48 h [3] [nM]	pIC50 (A549)	inhibition (Oryctolagus cuniculus) [%]	inhibition [4] [%]	inhibition (Pyruvate kinase PKM [5]) [%]	pIC50 (4T1)	Activity (Pyruvate kinase PKM [6])	inhibition (Pyruvate kinase PKM [7])	inhibition (Pyruvate kinase PKM [8]) [%]	inhibition (Pyruvate kinase PKM [9]) [%]	inhibition (Pyruvate kinase PKM [10])	inhibition (Pyruvate kinase PKM [11]) [%]
[2H]C([2H])([2H])OC(=O)c1cc[n+]2[se]c(C3(O)CCCCC3)c(Br)c2c1.[Cl-]	5.95	6.21	6.40	6.31	6.32	6.42	6.27	640	5.92										
NC(=O)c1cc[n+]2[se]c(C3(O)C4CC5CC(C4)CC3C5)c(Br)c2c1 (stereo not drawn)	6.25		6.19	6.04	6.00	6.21	6.13	910	5.66	6	11	21							
NC(=O)c1cc[n+]2[se]c(C3(O)CCC(F)(F)CC3)c(Br)c2c1	5.90	6.27	5.87	5.84	6.44	6.00	6.22	1410	5.50	13	40	26							
COC(=O)c1cc[n+]2[se]c(C3([O-])CCCC3)c(Br)c2c1	5.69	6.29	5.78	6.32	6.42	6.44	6.39	770	5.06	6	42	20							
O=C(O)c1ccc2c(Br)c(C3(O)CCCCC3)[se][n+]2c1				5.49	< 6.00	< 5.00	5.41	3550											
NC(=O)c1ccc2c(Br)c(C3(O)CCCCC3)[se][n+]2c1				6.22	< 6.00	5.64	5.82	1270											
COC(=O)c1cc(C)[n+]2[se]c(C3(O)CCCCC3)c(Br)c2c1	6.02		6.43	6.35	5.87	6.52	6.47	900	5.95	7	28	10							
COC(=O)c1ccc2c(Br)c(C3(O)CCCCC3)[se][n+]2c1	6.15	6.52	6.37	6.60	6.26	6.06	6.51	890	5.88	10	39	16							
COc1cccc2c1C(=O)c1c(O)c3c(c(O)c1C2=O)C[C@@](O)(C(=O)CO)C[C@@H]3O[C@H]1C[C@H](N)[C@H](O)[C@H](C)O1 [DOXORUBICIN]			6.39	6.49		6.33	5.97	3900	6.64				7.19						
COC(=O)c1cc2c(Br)c(C3(O)CCCCC3)[se][n+]2cc1F	5.63		5.86	5.94	6.05	5.97	5.92	1680	5.53	7	15	29							
COC(=O)c1cc[n+]2[se]c(C3(O)CCC(F)(F)CC3)c(Br)c2c1	5.83	6.24	6.32	6.32	6.20	6.55	6.62	1060	5.94	2	29	11							
COC(=O)c1cc[n+]2[se]c(C3([O-])CCC3)c(Br)c2c1	< 5.00	6.22	5.19	5.49	6.07	5.55	5.52	2970	5.04	7	20	26							
OC1(c2[se][n+]3ccccc3c2Br)CCCCC1		5.56			5.53														
COC(=O)c1cc[n+]2[se]c(C3(O)C4CC5CC(C4)CC3C5)c(Br)c2c1 (stereo not drawn)				5.21	< 6.00	5.16	5.54	4760											
CCCCCCCCCCCCCC(C)(O)c1[se][n+]2ccc(C(N)=O)cc2c1Br (stereo not drawn)	5.36		5.62	5.70	6.05	6.00	6.04	1910	5.43	9	29	23							
O=C(O)c1cc[n+]2[se]c(C3(O)CCCCC3)c(Br)c2c1	5.17		5.21	5.18	5.97	< 5.00	5.24	7820	5.15	9	5	4							
CCCCCCCCCCCCCC(C)(O)c1[se][n+]2ccc(C(=O)OC)cc2c1Br (stereo not drawn)				5.47	< 6.00	5.42	5.61	3630											
NC(=O)c1cccc2c(Br)c(C3(O)CCCCC3)[se][n+]12				5.73	< 6.00	5.41	5.88	2630											
NC(=O)c1cc[n+]2[se]c(C3(O)CCCCC3)c(Br)c2c1	5.85	6.24	5.94	6.00	6.38	5.65	6.22	1410	5.55	6	37	15		Dose-Dependent Effect	Dose-Dependent Effect	43.2	69.1	Dose-Dependent Effect	38
O=c1cc(-c2ccc(O)cc2)oc2cc(O)cc(O)c12 [APIGENIN]		< 4.70			< 4.70														
